Data reported in patent US20260152487A1 (Sitryx Therapeutics Limited, priority 2021, published 2026).
Like-named read-outs stand apart in the source and are kept apart here.

Target: T1, recombinant human PKM2 (Homo sapiens, UniProt P14618)
T1 construct: His (N); purchased R&D Systems
Assay: Human PKM2 activation assay (Kinase-Glo Plus luminescent detection of generated ATP)
Assay type: biochemical
Conditions: for Emax: read-out: hPKM2 Emax; for EC50: 4-parameter logistic fit
Procedure: Compound activation of recombinant human PKM2 pyruvate kinase activity was determined by biochemical assay. N-terminal His-tagged hPKM2 was sourced from R&D Systems and its substrates phosphoenolpyruvate (PEP) and ADP from Sigma-Aldrich and 2Bscientific Ltd, respectively. The Kinase-Glo® Plus luminescence assay was from Promega. All other reagents were from Sigma-Aldrich. Test Compounds were prepared as 10 mM DMSO stocks and dilution series prepared in DMSO for direct dilution into Assay Buffer comprising 50 mM imidazole, 50 mM KCl, 7 mM MgCl2, 0.01% Tween20, 0.05% BSA (pH 7.2).
Human PKM2 was diluted into Assay Buffer comprising 50 mM imidazole, 50 mM KCl, 7 mM MgCl2, 0.01% Tween20, 0.05% BSA (pH 7.2) to a final concentration of […]. Enzyme-Assay Buffer mix was dispensed into a 384-well shallow-well white-walled plate (PerkinElmer) and Test Compounds added by acoustic dispense (Echo®, Labcyte Inc.).
After 60 minutes' incubation on an orbital shaker (300 rpm, 26° C.), enzyme activity was quantified by the luminescent detection of generated ATP. Kinase-Glo® Plus reagent was added to each well and the plates incubated for a further 15 minutes on an orbital shaker in the dark (300 rpm, 26° C.) before luminescence measurement on a plate reader (PHERAstar® FSX, BMG Labtech).
Percentage activation was calculated by normalising […] signals to plate LOW (DMSO vehicle) and HIGH (5 μM TEPP-46) controls. EC50 and Emax values were determined from 4-parameter logistic fits of compound concentration-response curves.

[1] = percentage activation normalised to DMSO vehicle (LOW) and 5 μM TEPP-46 (HIGH)
[2] = recombinant human PKM2 activation, read-out: hPKM2 EC50

T1 sequence (P14618 2-531 limits assumed): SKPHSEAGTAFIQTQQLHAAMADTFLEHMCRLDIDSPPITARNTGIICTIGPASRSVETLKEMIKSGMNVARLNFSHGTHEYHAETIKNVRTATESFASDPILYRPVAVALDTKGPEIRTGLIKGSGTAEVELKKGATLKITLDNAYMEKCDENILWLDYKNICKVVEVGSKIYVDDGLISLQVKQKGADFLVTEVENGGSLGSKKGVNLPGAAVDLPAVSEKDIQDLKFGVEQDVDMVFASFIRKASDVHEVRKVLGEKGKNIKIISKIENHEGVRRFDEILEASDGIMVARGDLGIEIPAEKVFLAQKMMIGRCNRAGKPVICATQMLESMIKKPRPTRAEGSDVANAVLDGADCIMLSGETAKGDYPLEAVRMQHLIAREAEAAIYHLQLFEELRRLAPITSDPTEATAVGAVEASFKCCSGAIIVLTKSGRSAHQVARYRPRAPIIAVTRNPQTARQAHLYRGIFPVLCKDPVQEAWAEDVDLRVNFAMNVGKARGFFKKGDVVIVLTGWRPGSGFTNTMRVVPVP

Row | SMILES | Emax [1] | EC50 [2] | EC50 (hPKM2 EC50, recombinant human PKM2 activation) | Emax
1 | Cn1ccc(Cn2ncc3cc(S(=O)(=O)c4cnn(CCO)c4)ccc3c2=O)n1 [Example 264, 6-((1-(2-hydroxyethyl)-1H-pyrazol-4-yl)sulfonyl)-2-((1-methyl-1H-pyrazol-3-yl)methyl)phthalazin-1(2H)-one] | 94.6% | 204 nM | – | –
2 | Cn1cc(S(=O)(=O)c2ccc3c(=O)n(Cc4cc(F)[nH]n4)ncc3c2)cn1 [Example 322] | 104% | 231 nM | – | –
3 | COc1ccc(Cn2ncc3cc(S(=O)(=O)c4cn[nH]c4)ccc3c2=O)nc1C [Example 291, 6-(1H-pyrazol-4-ylsulfonyl)-2-((5-methoxy-6-methylpyridin-2-yl)methyl)phthalazin-1(2H)-one] | 82.8% | 988 nM | – | –
4 | CCn1nccc1Cn1ncc2cc(S(=O)(=O)c3ccccc3)ccc2c1=O [Example 83, 2-((1-ethyl-1H-pyrazol-5-yl)methyl)-6-(phenylsulfonyl)phthalazin-1(2H)-one] | 78.1% | 466 nM | – | –
5 | COc1ccc(Cn2ncc3cc(S(=O)(=O)c4cc(C)ns4)ccc3c2=O)cn1 [Example 148, 2-((6-methoxypyridin-3-yl)methyl)-6-(3-methylisothiazol-5-ylsulfonyl)phthalazin-1(2H)-one] | 71.3% | 58.4 nM | – | –
6 | Nc1cccc(Cn2ncc3cc(S(=O)(=O)c4cccnc4)ccc3c2=O)c1 [Example 121, 2-(3-aminobenzyl)-6-(pyridin-3-ylsulfonyl)phthalazin-1(2H)-one] | 116% | 620 nM | – | –
7 | COc1ccc(S(=O)(=O)c2ccc3c(=O)n(Cc4cc[nH]n4)ncc3c2)nc1 [Example 257, 2-((1H-pyrazol-3-yl)methyl)-6-((5-methoxypyridin-2-yl)sulfonyl)phthalazin-1(2H)-one] | 99.3% | 161 nM | – | –
8 | COc1ccc(Cn2ncc3cc(S(=O)(=O)c4cn(C)c(C)n4)ccc3c2=O)cn1 [Example 185, 6-(1,2-dimethyl-1H-imidazol-4-ylsulfonyl)-2-((6-methoxypyridin-3-yl)methyl)phthalazin-1(2H)-one] | 66% | 739 nM | – | –
9 | COc1ccc(Cn2ncc3cc(S(=O)(=O)c4cnc5c(c4)CCO5)ccc3c2=O)cn1 [Example 183, 6-((2,3-dihydrofuro[2,3-b]pyridin-5-yl)sulfonyl)-2-((6-methoxypyridin-3-yl)methyl)phthalazin-1(2H)-one] | 79.7% | 47.2 nM | – | –
10 | COc1ccc(Cn2ncc3cc(S(=O)(=O)c4ccc(OC(F)F)cc4)ccc3c2=O)cn1 [Example 153, 6-(4-(difluoromethoxy)phenylsulfonyl)-2-((6-methoxypyridin-3-yl)methyl)phthalazin-1(2H)-one] | 77.2% | 15.7 nM | – | –
11 | Cn1cc(S(=O)(=O)c2ccc3c(=O)n(Cc4ccn(C5CC5)n4)ncc3c2)cn1 [Example 236, 2-((1-cyclopropyl-1H-pyrazol-3-yl)methyl)-6-((1-methyl-1H-pyrazol-4-yl)sulfonyl)phthalazin-1(2H)-one] | 116% | 120 nM | – | –
12 | NC(=O)c1ccc(Cn2ncc3cc(S(=O)(=O)c4ccccc4)ccc3c2=O)o1 [Example 86, 5-((1-oxo-6-(phenylsulfonyl)phthalazin-2(1H)-yl)methyl)furan −2-carboxamide] | 92.2% | 765 nM | – | –
13 | COc1ccc(Cn2ncc3cc([S@](=N)(=O)c4ccc(OC(F)F)cc4)ccc3c2=O)cn1 (single isomer, unassigned) [Example 135] | 79.9% | 111 nM | – | –
14 | COc1ccc(Cn2ncc3cc(S(=O)(=O)c4cn[nH]c4)ccc3c2=O)cn1 [Example 197, 6-((1H-pyrazol-4-yl)sulfonyl)-2-((6-methoxypyridin-3-yl)methyl)phthalazin-1(2H)-one] | – | – | 153 nM | 94.5%
15 | COc1ccc(Cn2ncc3cc(S(=O)(=O)c4ccc(OC(F)F)nc4)ccc3c2=O)cn1 [Example 124, 6-((6-(difluoromethoxy)pyridin-3-yl)sulfonyl)-2-((6-methoxypyridin-3-yl)methyl)phthalazin-1(2H)-one] | 107% | 31.3 nM | – | –
16 | C[C@@H]1Cc2cc(S(=O)(=O)c3ccc4c(=O)n(Cc5ccn(C)n5)ncc4c3)ccc2O1 [Example 217, (R)-2-((1-methyl-1H-pyrazol-3-yl)methyl)-6-((2-methyl-2,3-dihydrobenzofuran-5-yl)sulfonyl)phthalazin-1(2H)-one] | 115% | 60.2 nM | – | –
17 | Cc1ccc(Cn2ncc3cc(S(=O)(=O)c4cn[nH]c4)ccc3c2=O)cn1 [Example 295, 6-((1H-pyrazol-4-yl)sulfonyl)-2-((6-methylpyridin-3-yl)methyl)phthalazin-1(2H)-one] | 104% | 456 nM | – | –
18 | COc1ccc(Cn2ncc3cc(S(=O)(=O)c4cnn(C)c4)ccc3c2=O)cn1 [Example 168, 2-((6-methoxypyridin-3-yl)methyl)-6-((1-methyl-1H-pyrazol-4-yl)sulfonyl)phthalazin-1(2H)-one] | 96% | 103 nM | – | –

Row | SMILES | Emax [1] | EC50 [2] | EC50 (hPKM2 EC50, recombinant human PKM2 activation) | Emax
19 | Cc1cc(Cn2ncc3cc(S(=O)(=O)c4cnn(C)c4)ncc3c2=O)n[nH]1 [Example 331] | 93.3% | 167 nM | – | –
20 | Cc1cccc(Cn2ncc3cc(S(=O)(=O)c4n[nH]cc4Cl)ccc3c2=O)n1 [Example 319] | 102% | 157 nM | – | –
21 | O=c1c2ccc(S(=O)(=O)c3ccccc3)cc2cnn1Cc1ccsc1CO [Example 22, 2-((2-(hydroxymethyl)thiophen-3-yl)methyl)-6-(phenylsulfonyl)phthalazin-1(2H)-one] | 86.1% | 102 nM | – | –
22 | Cn1cc(S(=O)(=O)c2cnc3c(=O)n(Cc4cc[nH]n4)ncc3c2)cn1 [Example 267, 7-((1H-pyrazol-3-yl)methyl)-3-((1-methyl-1H-pyrazol-4-yl)sulfonyl)pyrido[2,3-d]pyridazin-8(7H)-one] | 83.5% | 481 nM | – | –
23 | N=S(=O)(c1ccccc1)c1ccc2c(=O)n(Cc3cccc(N)c3)ncc2c1 (stereo not drawn) [Example 120, 2-(3-aminobenzyl)-6-(phenylsulfonimidoyl)phthalazin-1(2H)-one] | 103% | 234 nM | – | –
24 | COc1ccc(Cn2ncc3cc(S(=O)(=O)c4ccc5c(c4)OC(F)(F)O5)ccc3c2=O)cn1 [Example 156] | 88.7% | 91 nM | – | –
25 | Cc1nc(Cn2ncc3cc(S(=O)(=O)c4cn[nH]c4)ccc3c2=O)c(F)cc1F [Example 342] | 104% | 84.4 nM | – | –
26 | COc1ccc(Cn2ncc3cc(S(=O)(=O)c4ccc(C)s4)ccc3c2=O)cn1 [Example 171, 2-((6-methoxypyridin-3-yl)methyl)-6-(5-methylthiophen-2-ylsulfonyl)phthalazin-1(2H)-one] | 82.3% | 77.2 nM | – | –
27 | COc1ccc(Cn2ncc3cc(S(=O)(=O)c4ccccc4)ccc3c2=O)c(C(N)=O)n1 [Example 14, 6-methoxy-3-((1-oxo-6-(phenylsulfonyl)phthalazin-2(1H)-yl)methyl)picolinamide] | 95.5% | 147 nM | – | –
28 | Cn1ccc(Cn2ncc3cc(S(=N)(=O)c4ccccc4)ccc3c2=O)n1 (stereo not drawn) [Example 262, 2-((1-methyl-1H-pyrazol-3-yl)methyl)-6-(phenylsulfonimidoyl)phthalazin-1(2H)-one] | 110% | 647 nM | – | –
29 | Cc1cc(Cn2ncc3cc(S(=O)(=O)c4csc(C)n4)ccc3c2=O)n[nH]1 [Example 358] | 98.4% | 77 nM | – | –
30 | Cc1c[nH]nc1Cn1ncc2cc(S(=O)(=O)c3cnn(C)c3)ccc2c1=O [Example 313] | 92.3% | 196 nM | – | –
31 | COc1cccc(S(=O)(=O)c2ccc3c(=O)n(Cc4cc[nH]n4)ncc3c2)n1 [Example 286, 2-((1H-pyrazol-3-yl)methyl)-6-((6-methoxypyridin-2-yl)sulfonyl)phthalazin-1(2H)-one] | 105% | 246 nM | – | –
32 | Cc1[nH]nc(Cn2ncc3cc(S(=O)(=O)c4ccn(C)n4)ccc3c2=O)c1Cl [Example 337] | 95.9% | 85.5 nM | – | –
33 | Nc1cccc(Cn2ncc3cc([S+]([O-])c4ccccc4)ccc3c2=O)c1 (stereo not drawn) [Example 119, 2-(3-aminobenzyl)-6-(phenylsulfinyl)phthalazin-1(2H)-one] | 98.8% | 348 nM | – | –
34 | Cc1cc(Cn2ncc3cc(S(=O)(=O)c4cnn(C(F)F)c4)ccc3c2=O)n[nH]1 [Example 315] | 108% | 241 nM | – | –
35 | COc1ccc(S(=O)(=O)c2ccc3c(=O)n(Cc4cc(C(F)(F)F)no4)ncc3c2)cc1 [Example 112, 6-(4-methoxyphenylsulfonyl)-2-((3-(trifluoromethyl)isoxazol-5-yl)methyl)phthalazin-1(2H)-one] | 66.4% | 21.3 nM | – | –
36 | O=c1c2ccc(S(=O)(=O)c3ccc4ccoc4c3)cc2cnn1Cc1cc[nH]n1 [Example 222, 2-((1H-pyrazol-3-yl)methyl)-6-(benzofuran-6-ylsulfonyl)phthalazin-1(2H)-one] | 115% | 136 nM | – | –
